Results reported in patent publication US9175003B2, “Substituted azoanthracene derivatives and intermediates for preparation thereof” (TransTech Pharma, LLC, priority 2009, dated 2015).

These compounds were tested against human GLP-1 receptor (Homo sapiens (Human), UniProt P43220). Settings: read-out: Mean EC50; cAMP, HTRF detection, 30 min at 37° C., HEK-293 cells expressing cloned human GLP-1 receptor.
Sequence of human GLP-1 receptor (P43220 24-463): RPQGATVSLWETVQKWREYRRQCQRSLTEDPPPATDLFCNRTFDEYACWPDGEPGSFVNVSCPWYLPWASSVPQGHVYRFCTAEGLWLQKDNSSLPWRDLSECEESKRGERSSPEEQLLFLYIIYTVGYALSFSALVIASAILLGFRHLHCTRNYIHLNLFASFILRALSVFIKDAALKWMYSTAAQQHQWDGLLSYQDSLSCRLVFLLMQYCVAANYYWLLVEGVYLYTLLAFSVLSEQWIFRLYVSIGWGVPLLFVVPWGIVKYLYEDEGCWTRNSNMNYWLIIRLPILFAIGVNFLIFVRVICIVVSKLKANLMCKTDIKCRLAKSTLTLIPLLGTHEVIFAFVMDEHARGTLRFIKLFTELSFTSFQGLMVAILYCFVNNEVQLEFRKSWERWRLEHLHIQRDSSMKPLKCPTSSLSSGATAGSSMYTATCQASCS
In the case of `COCCNc1nc(C)c(S(=O)(=O)N2Cc3cc4c(cc3C[C@H]2C(=O)N[C@@H](Cc2ccc(-c3ccc(C#N)cc3)cc2)C(=O)O)OC[C@H](c2ccc(OCc3ccc(Cl)c(Cl)c3)cc2)O4)s1` [Example 92, (S)-3-(4′-Cyano-biphenyl-4-yl)-2-({(3S,8S)-3-[4-(3,4-dichloro-benzyloxy)-phenyl]-7-[2-(2-methoxy-ethylamino)-4-methyl-thiazole-5-sulfonyl]-2,3,6,7,8,9-hexahydro-[1,4]dioxino[2,3-g]isoquinoline-8-carbonyl}-amino)-propionic acid], the EC50 is reported as 156 nM. With `COc1cc(C)ccc1S(=O)(=O)N1Cc2cc3c(cc2C[C@H]1C(=O)N[C@@H](Cc1ccc(-c2ccc(C#N)cc2)cc1)C(=O)O)OC[C@H](c1ccc(OCc2ccc(Cl)c(Cl)c2)cc1)O3` [Example 98, (S)-3-(4′-Cyano-biphenyl-4-yl)-2-{[(3S,8S)-3-[4-(3,4-dichloro-benzyloxy)-phenyl]-7-(2-methoxy-4-methyl-benzenesulfonyl)-2,3,6,7,8,9-hexahydro-[1,4]dioxino[2,3-g]isoquinoline-8-carbonyl]-amino}-propionic acid] the EC50 was 377 nM. `CCC(=O)Nc1nc(C)c(S(=O)(=O)N2Cc3cc4c(cc3C[C@H]2C(=O)N[C@@H](Cc2ccc(-c3ccc(C#N)cc3)cc2)C(=O)O)OCC(c2ccc(OCc3ccc(Cl)c(Cl)c3)cc2)O4)s1` (stereo partly drawn) [Example 132, (S)-3-(4′-Cyano-biphenyl-4-yl)-2-{[(S)-3-[4-(3,4-dichloro-benzyloxy)-phenyl]-7-(4-methyl-2-propionylamino-thiazole-5-sulfonyl)-2,3,6,7,8,9-hexahydro-[1,4]dioxino[2,3g]isoquinoline-8-carbonyl]-amino}-propionic acid] showed an EC50 of 214 nM. Work on `Cc1nc(N)ccc1S(=O)(=O)N1Cc2cc3c(cc2C[C@H]1C(=O)N[C@@H](Cc1ccc(-c2ccc(C#N)cc2)cc1)C(=O)O)OC[C@H](c1ccc(OCc2ccc(Cl)c(Cl)c2)cc1)O3` [Example 141, (S)-2-({(3S,8S)-7-(6-Amino-2-methyl-pyridine-3-sulfonyl)-3-[4-(3,4-dichloro-benzyloxy)-phenyl]-2,3,6,7,8,9-hexahydro-[1,4]dioxino[2,3-g]isoquinoline-8-carbonyl}-amino)-3-(4′-cyano-biphenyl-4-yl)-propionic acid] yielded an EC50 of 315 nM. `Cc1nc(NC(C)C)ccc1S(=O)(=O)N1Cc2cc3c(cc2C[C@H]1C(=O)N[C@@H](Cc1ccc(-c2ccc(C#N)cc2)cc1)C(=O)O)OC[C@H](c1ccc(OCc2ccc(Cl)c(Cl)c2)cc1)O3` [Example 142, (S)-3-(4′-Cyano-biphenyl-4-yl)-2-{[(3S,8S)-3-[4-(3,4-dichloro-benzyloxy)-phenyl]-7-(6-isopropylamino-2-methyl-pyridine-3-sulfonyl)-2,3,6,7,8,9-hexahydro-[1,4]dioxino[2,3-g]isoquinoline-8-carbonyl]-amino}-propionic acid] gave an EC50 of 263 nM. For `Cc1nc(NCC2CC2)ccc1S(=O)(=O)N1Cc2cc3c(cc2C[C@H]1C(=O)N[C@@H](Cc1ccc(-c2ccc(C#N)cc2)cc1)C(=O)O)OC[C@H](c1ccc(OCc2ccc(Cl)c(Cl)c2)cc1)O3` [Example 144, (S)-3-(4′-Cyano-biphenyl-4-yl)-2-({(3S,8S)-7-[6-(cyclopropylmethyl-amino)-2-methyl-pyridine-3-sulfonyl]-3-[4-(3,4-dichloro-benzyloxy)-phenyl]-2,3,6,7,8,9-hexahydro-[1,4]dioxino[2,3-g]isoquinoline-8-carbonyl}-amino)-propionic acid], the EC50 was 245 nM. In the case of `CC[C@@H](c1ccccc1)N1Cc2cc3c(cc2C[C@H]1C(=O)N[C@@H](Cc1ccc(-c2ccnc(C)c2C)cc1)C(=O)O)OC[C@H](c1ccc(OCc2cccc(Cl)c2)cc1)O3` [Example 147, (S)-2-{[(3S,8S)-3-[4-(3-Chloro-benzyloxy)-phenyl]-7-((S)-1-phenyl-propyl)-2,3,6,7,8,9-hexahydro-[1,4]dioxino[2,3-g]isoquinoline-8-carbonyl]-amino}-3-[4-(2,3-dimethyl-pyridin-4-yl)-phenyl]-propionic acid], the EC50 is reported as 5 nM. `CC[C@@H](c1ccccc1)N1Cc2cc3c(cc2C[C@H]1C(=O)N[C@@H](Cc1ccc(-c2ccnc(C)c2C)cc1)C(=O)O)OC[C@H](c1ccc(OCc2ccc(Cl)cc2)cc1)O3` [Example 148, (S)-2-{[(3S,8S)-3-[4-(4-Chloro-benzyloxy)-phenyl]-7-((S)-1-phenyl-propyl)-2,3,6,7,8,9-hexahydro-[1,4]dioxino[2,3-g]isoquinoline-8-carbonyl]-amino}-3-[4-(2,3-dimethyl-pyridin-4-yl)-phenyl]-propionic acid] gave an EC50 of 13 nM. `CC[C@@H](c1ccccc1)N1Cc2cc3c(cc2C[C@H]1C(=O)N[C@@H](Cc1ccc(-c2ccnc(C)c2C)cc1)C(=O)O)OC[C@H](c1ccc(OCc2ccccc2)cc1)O3` [Example 149, (S)-2-{[(3S,8S)-3-(4-Benzyloxy-phenyl)-7-((S)-1-phenyl-propyl)-2,3,6,7,8,9-hexahydro-[1,4]dioxino[2,3-g]isoquinoline-8-carbonyl]-amino}-3-[4-(2,3-dimethyl-pyridin-4-yl)-phenyl]-propionic acid] was tested, and the EC50 was 26 nM. `CC(=O)N1Cc2cc3c(cc2C[C@H]1C(=O)N[C@@H](Cc1ccc(-c2ccnc(C)c2C)cc1)C(=O)O)OC[C@H](c1ccc(OCc2ccc(Cl)c(Cl)c2)cc1)O3` [Example 150, (S)-2-({(3S,8S)-7-Acetyl-3-[4-(3,4-dichloro-benzyloxy)-phenyl]-2,3,6,7,8,9-hexahydro-[1,4]dioxino[2,3-g]isoquinoline-8-carbonyl}-amino)-3-[4-(2,3-dimethyl-pyridin-4-yl)-phenyl]-propionic acid] showed an EC50 of 372 nM. Work on `Cc1ccccc1C(=O)N1Cc2cc3c(cc2C[C@H]1C(=O)N[C@@H](Cc1ccc(-c2ccnc(C)c2C)cc1)C(=O)O)OC[C@H](c1ccc(OCc2ccc(Cl)c(Cl)c2)cc1)O3` [Example 151, (S)-2-{[(3S,8S)-3-[4-(3,4-Dichloro-benzyloxy)-phenyl]-7-(2-methyl-benzoyl)-2,3,6,7,8,9-hexahydro-[1,4]dioxino[2,3-g]isoquinoline-8-carbonyl]-amino}-3-[4-(2,3-dimethyl-pyridin-4-yl)-phenyl]-propionic acid] yielded an EC50 of 18 nM. In the case of `Cc1nccc(-c2ccc(C[C@H](NC(=O)[C@@H]3Cc4cc5c(cc4CN3C(=O)C(C)(C)C)O[C@@H](c3ccc(OCc4ccc(Cl)c(Cl)c4)cc3)CO5)C(=O)O)cc2)c1C` [Example 152, (S)-2-{[(3S,8S)-3-[4-(3,4-Dichloro-benzyloxy)-phenyl]-7-(2,2-dimethyl-propionyl)-2,3,6,7,8,9-hexahydro-[1,4]dioxino[2,3-g]isoquinoline-8-carbonyl]-amino}-3-[4-(2,3-dimethyl-pyridin-4-yl)-phenyl]-propionic acid], the EC50 is reported as 80 nM. Work on `Cc1nccc(-c2ccc(C[C@H](NC(=O)[C@@H]3Cc4cc5c(cc4CN3C(=O)C(C)C)O[C@@H](c3ccc(OCc4ccc(Cl)c(Cl)c4)cc3)CO5)C(=O)O)cc2)c1C` [Example 153, (S)-2-({(3S,8S)-3-[4-(3,4-Dichloro-benzyloxy)-phenyl]-7-isobutyryl-2,3,6,7,8,9-hexahydro-[1,4]dioxino[2,3-g]isoquinoline-8-carbonyl}-amino)-3-[4-(2,3-dimethyl-pyridin-4-yl)-phenyl]-propionic acid] yielded an EC50 of 327 nM. Compound `Cc1nccc(-c2ccc(C[C@H](NC(=O)[C@@H]3Cc4cc5c(cc4CN3C(=O)C3CCCC3)O[C@@H](c3ccc(OCc4ccc(Cl)c(Cl)c4)cc3)CO5)C(=O)O)cc2)c1C` [Example 154, (S)-2-({(3S,8S)-7-Cyclopentanecarbonyl-3-[4-(3,4-dichloro-benzyloxy)-phenyl]-2,3,6,7,8,9-hexahydro-[1,4]dioxino[2,3-g]isoquinoline-8-carbonyl}-amino)-3-[4-(2,3-dimethyl-pyridin-4-yl)-phenyl]-propionic acid] has an EC50 of 108 nM. `Cc1nccc(-c2ccc(C[C@H](NC(=O)[C@@H]3Cc4cc5c(cc4CN3C(=O)Cc3ccccc3)O[C@@H](c3ccc(OCc4ccc(Cl)c(Cl)c4)cc3)CO5)C(=O)O)cc2)c1C` [Example 155, (S)-2-({(3S,8S)-3-[4-(3,4-Dichloro-benzyloxy)-phenyl]-7-phenylacetyl-2,3,6,7,8,9-hexahydro-[1,4]dioxino[2,3-g]isoquinoline-8-carbonyl}-amino)-3-[4-(2,3-dimethyl-pyridin-4-yl)-phenyl]-propionic acid] gave an EC50 of 525 nM. Compound `Cc1cccc(C(=O)N2Cc3cc4c(cc3C[C@H]2C(=O)N[C@@H](Cc2ccc(-c3ccnc(C)c3C)cc2)C(=O)O)OC[C@H](c2ccc(OCc3ccc(Cl)c(Cl)c3)cc2)O4)c1` [Example 157, (S)-2-{[(3S,8S)-3-[4-(3,4-Dichloro-benzyloxy)-phenyl]-7-(3-methyl-benzoyl)-2,3,6,7,8,9-hexahydro-[1,4]dioxino[2,3-g]isoquinoline-8-carbonyl]-amino}-3-[4-(2,3-dimethyl-pyridin-4-yl)-phenyl]-propionic acid] has an EC50 of 34 nM. In the case of `Cc1ccc(C(=O)N2Cc3cc4c(cc3C[C@H]2C(=O)N[C@@H](Cc2ccc(-c3ccnc(C)c3C)cc2)C(=O)O)OC[C@H](c2ccc(OCc3ccc(Cl)c(Cl)c3)cc2)O4)cc1` [Example 158, (S)-2-{[(3S,8S)-3-[4-(3,4-Dichloro-benzyloxy)-phenyl]-7-(4-methyl-benzoyl)-2,3,6,7,8,9-hexahydro-[1,4]dioxino[2,3-g]isoquinoline-8-carbonyl]-amino}-3-[4-(2,3-dimethyl-pyridin-4-yl)-phenyl]-propionic acid], the EC50 is reported as 146 nM. Work on `Cc1nccc(-c2ccc(C[C@H](NC(=O)[C@@H]3Cc4cc5c(cc4CN3C(=O)c3ccccc3)O[C@@H](c3ccc(OCc4ccc(Cl)c(Cl)c4)cc3)CO5)C(=O)O)cc2)c1C` [Example 159, (S)-2-({(3S,8S)-7-Benzoyl-3-[4-(3,4-dichloro-benzyloxy)-phenyl]-2,3,6,7,8,9-hexahydro-[1,4]dioxino[2,3-g]isoquinoline-8-carbonyl}-amino)-3-[4-(2,3-dimethyl-pyridin-4-yl)-phenyl]-propionic acid] yielded an EC50 of 19 nM.
